Reference: patent US8975214B2, “Emulsion adjuvant for herbicides” (Innovative Chemical Services Pty Ltd, priority 2010, dated 2015)

Tested on: Oats
Experiment: Glasshouse trial: adjuvant effect when applied with glyphosate to control oats
Format: in vivo
Details: no adjuvant, 14 days after treatment
Excerpt: In this example, the adjuvant effect of Compositions C and D from Example 1 was compared with a range of commercially available adjuvants when applied with glyphosate in 2 water hardnesses to control oats in a glasshouse.

In the case of `O=C(O)CNCP(=O)(O)O` [Glyphosate, glyphosate], the “Fresh Weight % of untreated control” value (glyphosate 50 g a.i./ha, water hardness 50 ppm CaCO3, oats 1.5-2 leaf) is reported as 73 % of untreated control, the “Fresh Weight % of untreated control” value (glyphosate 50 g a.i./ha, water hardness 300 ppm CaCO3) is reported as 106 % of untreated control and the “Fresh Weight % of untreated control” value (glyphosate 100 g a.i./ha, water hardness 50 ppm CaCO3) is reported as 52 % of untreated control. For the same compound, the “Fresh Weight % of untreated control” value (glyphosate 100 g a.i./ha, water hardness 300 ppm CaCO3) was 65 % of untreated control.
